From article PMC4475797, “New Activity of a Protein from Canavalia ensiformis” (Scientia Pharmaceutica, 2014)
Where two headings read alike, the source gives them in different places.

Columns and labels:
[1] = tested on: cancer cell lines (Du-145, HD-LAPC-4, Hep-G2, HI-LAPC-4, LnCAP, PANC-1, and PC-3); parameters: method as in PMID 20735206; conditions: combined with an ascorbic acid; cited from earlier work
Concanavalin A (Con A) = molecular target: T1, Concanavalin A (Con A) (Canavalia ensiformis, UniProt P02866); assay: biochemical; type: binding
T1 construct: purchased Sigma
Procedure: Fluorescence spectra were recorded with a Shimadzu spectrofluorometer (Japan). The emission spectra of the tryptophan residues were recorded in a 1-cm quartz cell (Hellma Analytics, Germany). To avoid the measurement of the Tyr emission, the protein sample was excited at λ=295 nm with a slit width of 1.0 nm. Total fluorescence was calculated after the normalization of the fluorescence spectra and correction for dilution. In order to normalize the inner filter and self-absorption effects, the excitation was always carried out less than 0.05 OD. The spectra were recorded in a wavelength range of 300–500 nm. All studies were done at 25°C with the temperature of the samples measured in the cuvette with an accuracy of ± 0.2°C.
The protein-ligand interactions were investigated by monitoring changes in the intrinsic protein fluorescence emission (θexc=295 nm). We applied ideal fluorescence titration and incubation methods for their intrinsic sensitivity and simplicity. For this purpose, Con A (1.8 µM) was incubated at 4°C overnight with increasing concentrations of MnTMPyP, ZnTPPS, and FeTMPyP. […] Applied porphyrin concentrations were consistent with minimizing artifacts due to aggregation phenomena. Con A-adenine interactions were studied by overnight incubation (at 4°C). The obtained experimental data were processed by non-linear and linear regression analysis, computed by a GraphPad Prism program and presented in figures comprising three independent sets of experiments.

[2] = tested on: G361 (a human melanoma cell line); parameters: method as in PMID 18645224; conditions: G361 cells; cited from earlier work
[3] = pH 6.8, read-out: Dissociation constants (KD) for the interaction

Compound: C[n+]1ccc(-c2c3nc(c(-c4cc[n+](C)cc4)c4ccc([n-]4)c(-c4cc[n+](C)cc4)c4nc(c(-c5cc[n+](C)cc5)c5ccc2[n-]5)C=C4)C=C3)cc1.[Cl-].[Cl-].[Cl-].[Cl-].[Cl-].[Mn+3] [MnTMPyP, 5,10,15,20-Tetrakis (N-methyl-4-pyridyl)-porphyrin-Mn(III)pentachloride]
- cytotoxic effect [1]: potent synergistic cytotoxic effect
- effect on Trp fluorescence emission of Con A (Concanavalin A (Con A)): fluorescence quenching
- Kd (Concanavalin A (Con A); [3]): 1890 ± 540 nM

Compound: C[n+]1ccc(-c2c3nc(c(-c4cc[n+](C)cc4)c4ccc([n-]4)c(-c4cc[n+](C)cc4)c4nc(c(-c5cc[n+](C)cc5)c5ccc2[n-]5)C=C4)C=C3)cc1.[Fe+3] [FeTMPyP, 5,10,15,20-Tetrakis (N-methyl 4-pyridyl)-porphyrin Fe(III)]
- Hill slope (h) (Concanavalin A (Con A)): 1.89±0.46
- blue shift of the emission maximum (Concanavalin A (Con A)): 5 nm
- Kd (Concanavalin A (Con A); [3]): 950 ± 130 nM

Compound: 5,10,15,20-Tetrakis(4-sulfonatophenyl)-porphyrin-Au(III)chloride [AuTPPS]
- effect on Trp fluorescence emission of Con A (Concanavalin A (Con A)): fluorescence quenching

Compound: Nc1ncnc2[nH]cnc12 [adenine]
- Kd (Concanavalin A (Con A)): 380 ± 80 nM
- effect on Trp fluorescence emission of Con A (Concanavalin A (Con A)): fluorescence quenching

Compound: O=S(=O)([O-])c1ccc(-c2c3nc(c(-c4ccc(S(=O)(=O)[O-])cc4)c4ccc([nH]4)c(-c4ccc(S(=O)(=O)[O-])cc4)c4nc(c(-c5ccc(S(=O)(=O)[O-])cc5)c5ccc2[nH]5)C=C4)C=C3)cc1.[Zn+2].[Zn+2] [ZnTPPS, 5,10,15,20-Tetrakis (4-sulfonatophenyl)-porphyrin-zinc(II)]
- cell death [2]: induces cell death
- effect on Trp fluorescence emission of Con A (Concanavalin A (Con A)): increase in the Trp fluorescence
- red shift of the emission maximum position (Concanavalin A (Con A)): 10 nm
